Reference: patent US11236052B2, “Aminobenzimidazole derivatives, treatments, and methods of inhibiting histone deacetylase” (TRANSLATIONAL DRUG DEVELOPMENT, LLC, priority 2017, dated 2022)
Where two headings read alike, the source gives them in different places. Each block holds one compound with its values, some of them ahead of it.

Assays:
Toledo = test: CellTiter-Glo cell viability assay, Toledo; format: cell-based; conditions: Lymphoma; for IC50: Homo sapiens, 72 hours
Protocol: (§1) Cell Viability Assay—Cell viability was measured by the CellTiter-Glo® cell viability assay Promega (Madison, Wis.). The CellTiter-Glo® Luminescent Cell Viability Assay is a homogeneous method to determine the number of viable cells in culture based on quantitation of the ATP present, which signals the presence of metabolically active cells. Following treatment, CellTiter-Glo® is added to treatment wells and incubated at 37° C. luminescence values were measured at using a Molecular Devices Spectramax microplate reader.
(§2) Single Agent Studies—Cells were grown to 70% confluency, trypsinized, counted, and seeded in 96 well flat-bottom plates at a final concentration of 2.5×10^3-5×10^3 cells/well (Day 0). Cells were allowed to incubate in growth media for 24 hours. Treatment with the test agents began on Day 1 and continued for 72 hours. At the 72-hour time point, treatment-containing media was removed. Viable cell numbers are quantified by the CellTiter-Glo® cell viability assay as described above. Experiments were run with triplicate concentrations to determine growth inhibitory activity. Results from these studies were used to calculate an IC50 value (concentration of drug that inhibits cell growth by 50 percent of control) for each compound.
(§3) Data Collection—For single agent and combination studies, data from each experiment was collected and expressed as % Cell Growth using the following calculation: % Cell Growth=(ftest/fvehicle)×100
(§4) Where ftest is the luminescence of the tested sample, and fvehicle is the luminescence of the vehicle in which the drug is dissolved. Dose response graphs and IC50 values were generated using Prism 6 software (GraphPad).

A2780 = test: CellTiter-Glo cell viability assay, A2780; format: cell-based; conditions: Ovarian; for IC50: Homo sapiens, A2780, 72 hours
Protocol: as §1, §2, §3, §4

MCF7 = test: CellTiter-Glo cell viability assay, MCF7; format: cell-based; conditions: Breast; for IC50: Homo sapiens, MCF7, 72 hours
Protocol: as §1, §2, §3, §4

Ishikawa = test: CellTiter-Glo cell viability assay, Ishikawa; format: cell-based; conditions: Uterine; for IC50: Homo sapiens, 72 hours
Protocol: as §1, §2, §3, §4

H929 = test: CellTiter-Glo cell viability assay, H929; format: cell-based; conditions: Myeloma; for IC50: Homo sapiens, NCI-H929, H929, 72 hours
Protocol: as §1, §2, §3, §4

U251 = test: CellTiter-Glo cell viability assay, U251; format: cell-based; conditions: GBM; for IC50: Homo sapiens, U-251, U251, 72 hours
Protocol: as §1, §2, §3, §4

H1437 = test: CellTiter-Glo cell viability assay, H1437; format: cell-based; conditions: NSCLC; for IC50: Homo sapiens, NCI-H1437, H1437, 72 hours
Protocol: as §1, §2, §3, §4

S9 in vitro half-life = format: in vitro ADME; conditions: S9 fraction
SKUT-1 = test: CellTiter-Glo cell viability assay, SKUT-1; format: cell-based; conditions: Uterine; for IC50: Homo sapiens, SK-UT-1, SKUT-1, 72 hours
Protocol: as §1, §2, §3, §4

SUDHL-10 = test: CellTiter-Glo cell viability assay, SUDHL-10; format: cell-based; conditions: Lymphoma; for IC50: Homo sapiens, SU-DHL10, SUDHL-10, 72 hours
Protocol: as §1, §2, §3, §4

SNG-M = test: CellTiter-Glo cell viability assay, SNG-M; format: cell-based; conditions: Uterine; for IC50: 72 hours
Protocol: as §1, §2, §3, §4

Raji = test: CellTiter-Glo cell viability assay, Raji; format: cell-based; conditions: Lymphoma; for IC50: Homo sapiens, 72 hours
Protocol: as §1, §2, §3, §4

SKUT-1B = test: CellTiter-Glo cell viability assay, SKUT-1B; format: cell-based; conditions: Uterine; for IC50: Homo sapiens, Skut1B, 72 hours
Protocol: as §1, §2, §3, §4

MM1.S cells = test: CellTiter-Glo cell viability assay, MM1.S cells; format: cell-based, human; conditions: for IC50: Homo sapiens
Protocol: Cell viability in the presence of varying concentrations of the above listed compounds at different time points was used to assess cytotoxicity and the effect of the compounds on cell proliferation.
as §1, with “CellTiter-GlO®” for “CellTiter-Glo®”, “assay from” for “assay”, “reader” for “reader.”
as §2, with “agents or standard agents” for “agents”, “72 hour timepoint, treatment containing” for “72-hour time point, treatment-containing”, “CellTiter-GlO®” for “CellTiter-Glo®”, “above.” for “above. Experiments were run with triplicate concentrations to determine growth inhibitory activity.”
Data Collection—For single agent and combination studies, data from each experiment was collected and expressed as % Cell Growth using the following calculation: Cell Growth=(ftest/fvehicle)×100
Where ftest is the fluorescence of the tested sample, and fvehicle is the fluorescence of the vehicle in which the drug is dissolved. Dose response graphs and IC50 values were generated using Prism 6 software (GraphPad) using the following equation: […]
Where X is the logarithm of concentration and Y is the response. Y starts at the Bottom and goes to Top with a sigmoid shape.
as §1, §2, §3, §4

MDA-157 = test: CellTiter-Glo cell viability assay, MDA-157; format: cell-based; conditions: Breast; for IC50: MDA-157, 72 hours
Protocol: as §1, §2, §3, §4

% PPB, rat = format: in vitro ADME; conditions: plasma; rat (r)
JEKO = test: CellTiter-Glo cell viability assay, JEKO; format: cell-based; conditions: Lymphoma; for IC50: 72 hours
Protocol: as §1, §2, §3, §4

RPMI-8226 = test: CellTiter-Glo cell viability assay, RPMI-8226; format: cell-based; conditions: Myeloma; for IC50: Homo sapiens, RPMI-8226, 72 hours
Protocol: as §1, §2, §3, §4

H1650 = test: CellTiter-Glo cell viability assay, H1650; format: cell-based; conditions: NSCLC; for IC50: Homo sapiens, NCI-H1650, H1650, 72 hours
Protocol: as §1, §2, §3, §4

MDA468 = test: CellTiter-Glo cell viability assay, MDA468; format: cell-based; conditions: Breast; for IC50: MDA468, 72 hours
Protocol: as §1, §2, §3, §4

K562 = test: CellTiter-Glo cell viability assay, K562; format: cell-based; conditions: CML; for IC50: Homo sapiens, K562, 72 hours
Protocol: as §1, §2, §3, §4

[1] = MM1.S cells, 72 hours treatment, read-out: IC50 in MM1.S
[2] = Myeloma, MM1.S, 72 hours (Table 3), read-out: IC50

- IC50 (A2780): 2.03 µM
- IC50 (MCF7): 1.96 µM
- IC50 (H929): 0.83 µM
- IC50 (U251): 1.58 µM
- IC50 (H1437): 2.19 µM
- half-life (S9 in vitro half-life): 1.25 h
- IC50 (SKUT-1): 3.8 µM
- IC50 (SUDHL-10): 0.55 µM
- IC50 (Raji): 1.83 µM
- IC50 (SKUT-1B): 2.51 µM
- IC50 (MM1.S cells; [1]): 0.5 µM
- IC50 (MM1.S cells; [2]): 0.5 µM
- fraction unbound (% PPB, rat): 0.0017
- IC50 (RPMI-8226): 0.66 µM
- IC50 (H1650): 6.61 µM
- IC50 (K562): 1.58 µM
Structure (SMILES): O=C(NO)c1ccc(Nc2nc3ccccc3n2CC2CCCCC2)cc1 [ID #1, 4-((1-(cyclohexylmethyl)-1H-benzo[d]imidazol-2-yl)amino)-N-hydroxybenzamide]
- IC50 (Toledo): 0.81 µM
- Improvement ID #1 over ID #3 Percent (Toledo): 74.77%
- Improvement ID #1 over ID #3 fold (Toledo): 3.96 fold
- Improvement ID #1 over ID #3 Percent (A2780; A2780): 63.62%
- Improvement ID #1 over ID #3 fold (A2780; A2780): 2.75 fold
- Improvement ID #1 over ID #3 Percent (MCF7; MCF7): 44.79%
- Improvement ID #1 over ID #3 fold (MCF7; MCF7): 1.81 fold
- IC50 (Ishikawa): 1.7 µM
- Improvement ID #1 over ID #3 Percent (Ishikawa): 61.10%
- Improvement ID #1 over ID #3 fold (Ishikawa): 2.57 fold
- Improvement ID #1 over ID #3 Percent (H929; H929): 39.86%
- Improvement ID #1 over ID #3 fold (H929; H929): 1.66 fold
- Improvement ID #1 over ID #3 Percent (U251; U251): 61.18%
- Improvement ID #1 over ID #3 fold (U251; U251): 2.58 fold
- Improvement ID #1 over ID #3 Percent (H1437; H1437): 54.28%
- Improvement ID #1 over ID #3 fold (H1437; H1437): 2.19 fold
- Improvement ID #1 over ID #3 Percent (SKUT-1; SKUT-1): 60.21%
- Improvement ID #1 over ID #3 fold (SKUT-1; SKUT-1): 2.51 fold
- Improvement ID #1 over ID #3 Percent (SUDHL-10; SUDHL-10): 63.58%
- Improvement ID #1 over ID #3 fold (SUDHL-10; SUDHL-10): 2.75 fold
- Improvement ID #1 over ID #3 Percent (SNG-M): 78.93%
- Improvement ID #1 over ID #3 fold (SNG-M): 4.75 fold
- IC50 (SNG-M): 1.7 µM
- Improvement ID #1 over ID #3 Percent (Raji): 62.11%
- Improvement ID #1 over ID #3 fold (Raji): 2.64 fold
- Improvement ID #1 over ID #3 Percent (SKUT-1B): 63.73%
- Improvement ID #1 over ID #3 fold (SKUT-1B): 2.76 fold
- Improvement ID #1 over ID #3 Percent (MM1.S cells; Myeloma, MM1.S): 76.08%
- Improvement ID #1 over ID #3 fold (MM1.S cells; Myeloma, MM1.S): 4.18 fold
- Improvement ID #1 over ID #3 Percent (MDA-157; MDA-157): 63.77%
- Improvement ID #1 over ID #3 fold (MDA-157; MDA-157): 2.76 fold
- IC50 (MDA-157): 2.75 µM
- Improvement ID #1 over ID #3 Percent (JEKO): 56.31%
- Improvement ID #1 over ID #3 fold (JEKO): 2.29 fold
- IC50 (JEKO): 0.97 µM
- Improvement ID #1 over ID #3 Percent (RPMI-8226; RPMI-8226): 56.29%
- Improvement ID #1 over ID #3 fold (RPMI-8226; RPMI-8226): 2.29 fold
- Improvement ID #1 over ID #3 Percent (H1650; H1650): 63.68%
- Improvement ID #1 over ID #3 fold (H1650; H1650): 2.75 fold
- Improvement ID #1 over ID #3 Percent (MDA468; MDA468): 58.63%
- Improvement ID #1 over ID #3 fold (MDA468; MDA468): 2.42 fold
- IC50 (MDA468): 3.86 µM
- Improvement ID #1 over ID #3 Percent (K562; K562): 69.90%
- Improvement ID #1 over ID #3 fold (K562; K562): 3.32 fold

- IC50 (A2780): 5.58 µM
- IC50 (MCF7): 3.55 µM
- IC50 (H929): 1.38 µM
- IC50 (U251): 4.07 µM
- IC50 (H1437): 4.79 µM
- half-life (S9 in vitro half-life): 1.22 h
- IC50 (SKUT-1): 9.55 µM
- IC50 (SUDHL-10): 1.51 µM
- IC50 (Raji): 4.83 µM
- IC50 (SKUT-1B): 6.92 µM
- IC50 (MM1.S cells; [1]): 2.1 µM
- IC50 (MM1.S cells; [2]): 2.09 µM
- fraction unbound (% PPB, rat): 0.0055
- IC50 (RPMI-8226): 1.51 µM
- IC50 (H1650): 18.2 µM
- IC50 (K562): 5.25 µM
Structure (SMILES): O=C(NO)c1ccc(Nc2nc3ccccc3n2C2CCCCCC2)cc1 [ID #3, 4-((1-cycloheptyl-1H-benzo[d]imidazol-2-yl)amino)-N-hydroxybenzamide]
- IC50 (Toledo): 3.21 µM
- IC50 (Ishikawa): 4.37 µM
- IC50 (SNG-M): 8.07 µM
- IC50 (MDA-157): 7.59 µM
- IC50 (JEKO): 2.22 µM
- IC50 (MDA468): 9.33 µM
